Results on 18 compounds are retold here after patent US6355673B1, “Substituted diaminocarboxylic acids” (Aventis Pharma Deutschland GmbH, priority 1997, dated 2002).

Assay [1] addresses T1, stromelysin (MMP-3) (Homo sapiens, UniProt P08254).
T1 construct: enzymatic activity of the catalytic domains of human stromelysin and of neutrophil collagenase; made in house
The experiment in a line: Enzyme inhibition of the catalytic domain of human stromelysin (fluorogenic substrate). The format is biochemical. The settings on record: 15 min preincubation, pH=6.5, fluorescence 328 nm (ex)/393 nm (em). As for the experimental part: (§1) Preparation and determination of the enzymatic activity of the catalytic domains of human stromelysin and of neutrophil collagenase.
(§2) The enzymes stromelysin (MMP-3) and neutrophil collagenase (MMP-8) were prepared according to Ye et al. (Biochemistry; 31 (1992) pages 11231-11235). To measure the enzyme activity or the enzyme inhibitor action, 70 μl of buffer solution and 10 μl of enzyme solution are incubated for 15 min with 10 μl of a 10% strength (v/v) aqueous dimethyl sulfoxide solution, which optionally contains the enzyme inhibitor. After addition of 10 μl of a 10% strength (v/v) aqueous dimethyl sulfoxide solution which contains 1 mil/L of the substrates, the enzyme reaction is monitored by fluorescence spectroscopy (328 nm (ex)/393 nm(em)). The enzyme activity is shown as the extinction increase/min. The IC50 values listed in Table 2 are determined as those inhibitor concentrations which in each case lead to a 50% inhibition of the enzyme.
(§3) The buffer solution contains 0.05% Brij (Sigma, Deisenhofen, Germany) and also 0.1 mol/L tris/HCl, 0.1 mol/L NaCl, 0.01 mol/L CaCl2 and 0.1 mol/L piperazine-N,N′-bis(2-ethanesulfonic acid) (pH=6.5). The enzyme solution contains 5 μg/ml of one of the enzyme domains prepared according to Ye et al. The substrate solution contains 1 mil/L of the fluorogenic substrate (7-methoxycoumarin-4-yl)acetyl-Pro-Leu-Gly-Leu-3-(2′,4′-dinitrophenyl)-L-2,3-diaminopropionyl-Ala-Arg-NH2 (Bachem, Heidelberg, Germany).

Assay [2] addresses T2, neutrophil collagenase (MMP-8) (Homo sapiens, UniProt P22894).
T2 construct: enzymatic activity of the catalytic domains of human stromelysin and of neutrophil collagenase; made in house
In words: Enzyme inhibition of the catalytic domain of neutrophil collagenase (fluorogenic substrate). The format is biochemical. The settings on record: 15 min preincubation, pH=6.5, fluorescence 328 nm (ex)/393 nm (em). The method, then: as §1, §2, §3

T2 sequence (P22894 100-262 limits assumed): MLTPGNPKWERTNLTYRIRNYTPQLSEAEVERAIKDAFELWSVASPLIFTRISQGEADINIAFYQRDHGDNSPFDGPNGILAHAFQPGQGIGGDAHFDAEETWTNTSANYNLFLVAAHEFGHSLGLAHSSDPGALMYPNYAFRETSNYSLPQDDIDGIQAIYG
T1 sequence (P08254 100-272 limits assumed): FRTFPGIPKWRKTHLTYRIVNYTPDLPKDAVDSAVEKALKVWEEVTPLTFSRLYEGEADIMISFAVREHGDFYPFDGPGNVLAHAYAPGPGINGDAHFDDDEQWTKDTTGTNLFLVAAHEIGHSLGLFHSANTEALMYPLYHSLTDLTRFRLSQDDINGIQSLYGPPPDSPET

`O=C(CC(C(=O)O)c1ccccc1)NCCC[C@@H](NS(=O)(=O)c1ccc(-c2ccc(Cl)cc2)cc1)C(=O)O` (single isomer, unassigned) [Example 38]: the results for the IC50 in assay [1] and in assay [2] were 5 nM and 2 nM, respectively.
The matching figures for `O=C(CC(C(=O)O)c1ccccc1)NCCC[C@@H](NS(=O)(=O)c1ccc(-c2ccc(Cl)cc2)cc1)C(=O)O` (single isomer, unassigned) [Example 39]: 20 nM and 30 nM.
The matching figures for `O=C(NCCC[C@H](NS(=O)(=O)c1ccc(-c2ccc(Cl)cc2)cc1)C(=O)O)NS(=O)(=O)c1ccccc1` (single isomer, unassigned) [Example 61]: 6 nM and 2 nM.
Turning to `NC(=O)NCCC[C@@H](NS(=O)(=O)c1ccc(-c2ccc(Cl)cc2)cc1)C(=O)O` [Example 1, (R)-(4-Chlorobiphenylsulfonyl)citrulline], the IC50 is 50 nM in assay [1] and 7 nM in assay [2].
The like results for `CC(C)(C)OC(=O)NCCCC[C@@H](NS(=O)(=O)c1ccc(-c2ccc(Cl)cc2)cc1)C(=O)O` [Example 2, R-(4-Chlorobiphenylsulfonyl)-Lys(Boc)-OH] were, in that order, 20 nM and 6 nM.
As for `Cc1oncc1C(=O)NCCCC[C@@H](NS(=O)(=O)c1ccc(-c2ccc(Cl)cc2)cc1)C(=O)O` [Example 4, 4-Chlorobiphenylsulfonyl-N-epsilon-(5-methylisoxazol-4-carbonyl)-Lys-OH], the figures for the IC50 in assay [1] and in assay [2] were 90 nM and 20 nM, respectively.
The like results for `O=C(NCCC[C@H](NS(=O)(=O)c1ccc(-c2ccc(Cl)cc2)cc1)C(=O)O)NS(=O)(=O)c1ccccc1` [Example 5, (4-Chlorobiphenylsulfonyl)-N-delta-(phenylsulfonylamino-carbonyl)-Orn-OH] were, in that order, 50 nM and 4 nM.
The matching figures for `O=C(O)[C@@H](CCCN1Cc2ccccc2C1=O)NS(=O)(=O)c1ccc(-c2ccc(Cl)cc2)cc1` [Example 7, 2-(2R)-(4-Chlorobiphenylsulfonylamino)-5-(1-oxo-1,3-dihydro-isoindol-2-yl)pentanoic acid]: 4 nM and 2 nM.
The like results for `CC(=O)NCCCC[C@@H](NS(=O)(=O)CCc1ccc(-c2ccccc2)cc1)C(=O)O` [Example 9, R-(4-Biphenylethylsulfonyl)-N-epsilon-acetyl-Lys-OH] were, in that order, 60 nM and 70 nM.
As to `NCCCC[C@H](NS(=O)(=O)c1ccc(-c2ccc(Cl)cc2)cc1)C(=O)O` [Example 12], the IC50 in assay [1] was 60 nM; in assay [2] it was 10 nM.
The matching figures for `CC(C)(C)OC(=O)NCCC[C@H](NS(=O)(=O)c1ccc(-c2ccc(Cl)cc2)cc1)C(=O)O` [Example 14]: 5 nM and 3 nM.
The like results for `O=C(NCCC[C@H](NS(=O)(=O)c1ccc(-c2ccc(Cl)cc2)cc1)C(=O)O)OCc1ccccc1` [Example 15] were, in that order, 20 nM and 8 nM.
The matching figures for `O=C(NCCCC[C@H](NS(=O)(=O)c1ccc(-c2ccc(Cl)cc2)cc1)C(=O)O)OCc1ccccc1` [Example 16]: 20 nM and 10 nM.
With `CC(=O)NCSC[C@@H](NS(=O)(=O)c1ccc(-c2ccc(Cl)cc2)cc1)C(=O)O` [Example 18], the values for the IC50 in assay [1] and in assay [2] were 70 nM and 10 nM, respectively.
The like results for `O=C(NCCC[C@H](NS(=O)(=O)c1ccc(-c2ccc(Cl)cc2)cc1)C(=O)O)c1cnccn1` [Example 19] were, in that order, 20 nM and 5 nM.
On to `Cc1oncc1C(=O)NCCC[C@@H](NS(=O)(=O)c1ccc(-c2ccc(Cl)cc2)cc1)C(=O)O` [Example 20], for which the IC50 in assay [1] came to 40 nM; in assay [2], 7 nM.
The matching figures for `Cc1ccc(S(=O)(=O)NC(=N)NCCC[C@H](NS(=O)(=O)c2ccc(-c3ccc(Cl)cc3)cc2)C(=O)O)cc1` [Example 21]: 70 nM and 20 nM.
As for `CC(C)(C)OC(=O)NCCC[C@H](NS(=O)(=O)c1ccc(-c2ccc(Cl)cc2)cc1)C(=O)O` [Example 36], the IC50 in assay [2] was determined as 2 nM.
